# Test results reported in patent publication US20200062719A1, “Application of Imidazopyridine Derivatives in Regenerative Medicine” (University of Heidelberg, priority 2018, published 2020).
# Columns and labels:
# [1] = Metabolic analysis of O4I2 incubated with NCCIT cells (HPLC, LC/MS); format: in vitro ADME, human; conditions: 24 hours, O4I2 50 μM
# Experimental: (§1) The inventors adopted Hantzsch thiazole synthesis (FIG. 20A) and produced a series of new O4I2-ester derivatives (FIG. 20B). Their activities were measured in three luciferase report cell lines, namely HEK-OCT4, driven by the activation of OCT4-promoter, and NCCIT-OCT4 and NCCIT-NANOG, whose intensities are controlled by endogenous OCT4 and NANOG respectively. […] Carboxylesterase 1 (CES1) is an enzyme majorly contributing to ester-to-acid conversion.
# NCCIT cells were treated with O4I2 (50 μM) in RPMI 1640 medium containing 2% BSA/FBS. Medium and cells were collected. Cell pellet was solved in 0.1% Triton-x. Protein precipitated by adding MeOH (pH=2) in lysate supernatant on ice for 2 h. Metabolites were extracted from the combined supernatant with ethyl acetate. After removal of organic solvent, residue was dissolved in acetonitrile, frozen immediately in liquid N2 and stored in −80° C. until further analysis.
# Samples obtained after purification were diluted to contain 20% MeOH. 100 μL of the sample was transferred to an HPLC vial and placed in the autosampler of an Agilent 1200 series HPLC machine. Sample (20 μL) was injected into the system and metabolites were separated on a C18 column (Kinetex 2.6 μm, C18, 100 Å, dimensions 100×2.1 mm, Phenomenex, Aschaffenburg, Germany). […]
# OCT4-promoter = assay: Luciferase reporter assay in HEK-OCT4 cells; format: cell-based; conditions: HEK-OCT4, NCCIT-OCT4 and NCCIT-NANOG
# Experimental: In an effort to find such chemical structures able to induce pluripotency, a high-throughput screening (HTS) was performed. The screen was based on cellular luciferase reporter assays under the control of the promoter activity of a pluripotency-associated transcription factor (Oct4) in HEK293 cells.
# as §1
# [2] = Expression of pluripotency genes in unmodified NCCIT cells; format: cell-based, human
# Source text: Consistently, in unmodified NCCIT cells O4I4 forced the expression of OCT4 (3-fold increase as compared to 0.1% DMSO treatment) and NANOG (30-fold increase) as well as other pluripotency-related genes, like E-CADHERIN, SOX2, REX1 and STAT3, 0414-mediated enrichment of OCT4 and NANOG, as well as SOX2 and E-CADHERIN, was also detected by fluorescence-activated cell sorting. […] It was reported that removal of bFGF led to the loss of pluripotency-marker expression in hPSCs, including OCT4, SOX2, E-CADHERIN and NANOG, which however was rescued in the presence of O4I4 (FIG. 21A), indicating a positive function of O4I4 in maintaining the pluripotency-associated transcriptional circuitry in hPSC.
# Quantitative reverse-transcription real-time-PCR was performed using a Light Cycler 96 (Roche, Germany) following the manufacturer's protocol. Briefly, total RNA was isolated from cells using TRIzol (Qiagen, Germany) or NucleoSpin®RNA Plus (Macherey-Nagel, Germany). The same amount of RNA was used to reverse-transcriptional synthesize cDNA by using random primers ProtoScript® First Strand cDNA Synthesis Kit (NEB, Germany). qPCR was performed using the SYBR Green PCR master mix (qPCRBIO SyGreen Mix Lo-Rox, Nippon Genetics, Germany) and the primer pairs indicated below (MWG, Eurofins, Germany). Actin was used as an endogenous control. […]
# C. elegans [3] = assay: C. elegans survival assay under oxidative stress (juglone); format: in vivo
# Experimental: Eggs were released by lysing gravid adults with bleaching for 10 min. Resuspended eggs in sterile M9 buffer and incubated at 20° C. for 16-18 h. After all the worms were synchronized at the same L1 larval stage, transferred them into the liquid S-media which contents E. coli OP50 (0D600=0.8-1.2). Then, synchronized worms were treated with DMSO, 50 μg/ml epigallocatechin gallate (EGCG) or O4I4 (5 μM, 10 μM, and 20 μM) for further experiments.
# After 48 h treatment, around 60 wild-type C. elegans (N2) worms in each sample were transferred into a new liquid S-media which contains 80 μM of superoxide-generating compound juglone (5-hydroxy-1,4-naphthalenedione) for 24 h. If a worm has response via a gentle touch with platinum wire, it is considered as a live worm. Conversely, a dead worm was considered by no response. The function of the survival rate is shown below.
# C. elegans [4] = assay: C. elegans lifespan assay; format: in vivo; conditions: 0.5 μM
# Experimental: O4I4 (0.5 μM) were continuously added in medium until all the worms die. During the experiment period, every two days or three days, worms were counted either live or die by responding to a gentle touch with a platinum wire.
# daf-16 = assay: Daf-16 localization assay in C. elegans TJ356; format: in vivo
# Experimental: In this experiment, transgenic worms TJ356 (Daf-16::GFP) are employed to study our target substance affects the localization of daf-1 6. After 24 h treatment, worms were transferred to a glass slide and paralyzed with 10 mM sodium azide. BZ9000 fluorescence microscope was used to observe the localization of daf-1 6. In each sample, around 50 worms were scored for three localization patterns: cytoplasmic, intermediate and nuclear.
# Oct4 [5] = assay: Immunoblotting of OCT4 protein in human primary fibroblasts; format: cell-based
# Experimental: In human primary fibroblasts, O4I4 promoted the expression of pluripotency-associated genes, including OCT4, SOX2, NANOG, LIN28, E-CADHERIN, REX1 and SALL4. […] FACS analysis further confirmed the O4I4-mediated induction of OCT4 and E-CADHERIN.
# iPSCs were lysed using urea-lysis buffer (1 mM EDTA, 0.5% Triton X-100, 5 mM NaF, 6 M Urea, 1 mM Na3VO4, 10 μg/mL Pepstatin, 100 μM PMSF and 3 μg/mL Aprotinin in PBS). Enhanced chemiluminescence (ECL) immunoblot analysis was performed. 40 μg of total protein was resolved on 12% SDS-PAGE gels and immunoblotted with antibodies. […] antibody was used as loading control. Primary antibodies were incubated at 1:1000 dilution in TBS (pH 7.5) with 0.1% Tween-20 and 5% BSA/milk with gentle agitation overnight at 4° C. Secondary antibodies (Dianova, Germany) were incubated in TBS (pH 7.5) with 5% Milk and 0.1% Tween-20 at a 1:10,000 dilution for 1 h at room temperature.
# Nanog = assay: Luciferase reporter assay in NCCIT-Nanog cells; format: cell-based, human; conditions: 10 μM, 48 h
# Experimental: It is known in the art that Nanog is a direct target of Oct4 and can be activated by other Oct4 inducing compounds. […] At higher concentrations of O4I3 (FIGS. 1B and 1C) less activity was observed. Moreover, the activity of zolpidem (N,N-Dimethyl-2-(6-methyl-2-p-tolylimidazo[1,2-a]pyridin-3-yl)acetamid) (100) containing a similar backbone to O4I3 was tested in both reporter cell lines. An approximate 2-fold induction at 10 μM was detected (FIG. 8 and FIG. 9).
# Luciferase reporter assay was performed using Beatle Juice Kit (PJK, Germany) according to the manufacturer's instruction. NCCIT-Oct and NCCIT-Nanog reporter cells were plated into a 24-well plate (100,000 cells/well) for 24 h. Cells were treated with compounds as indicated and harvested with luciferase lysis buffer (25 mM Tris phosphate buffer pH=7.8, 4 mM EGTA, 1% Triton X-100, 10% glycerol and 2 mM fresh DTT, filtered through 0.45 μm sterile filter) at 37° C. for 15 min. The protein concentration was determined by Bradford assay (Sigma, Germany). 100 μL reaction mixture containing luciferin and ATP was added to 20 μL cell lysis in a white plate (Gibco, Germany), incubated for 5 min and measured by a luminometer plate-reader. The activity was determined as percent luminous intensity of treated cells over control cells from at least five-independent experiments.
# hiPSCs = assay: iPSC single cell expansion, viability by MTT assay; format: cell-based, human; conditions: much higher concentration and lower efficacy than O4I3
# Experimental: Since O4I3 induced sustainable expression of Oct4 and Nanog, the inventors questioned if it supports iPSC self-renewal in single cell expansion. Therefore, the viability of iPSCs, after replating Accutase®-dissociated single iPSCs, was tested in the presence or absence of O4I3. Rocki (Y-27632) was used for the first 24 h to increase iPSCs survival. A nearly 300% higher viability in cells treated with O4I3 (1 nM) was observed. Using 50 nM of O4I3 even 400% increase was observed (FIG. 2A). FACS analysis confirmed homologous expression of iPSCs markers, Tra-1-81 and Oct4, for at least 30 passages (FIG. 2B).
# iPSC single cell expansion was performed according to a well-established protocol known in the art (Watanabe et al, Nat Biotechnol, 2007, 25(6), 681-6). Briefly, iPSCs were dissociated with Accutase® as single cell suspension and re-seeded in a Geltrex-coated 96-well plate in the presence of Rock inhibitor for the first 24 h in combination with/without O4I3. Cell viability was performed in MTT assay as disclosed elsewhere (Cheng et al, Mol Oncol. 2016 June; 10(6):806-24).
# human fibroblasts = assay: Episome-based reprogramming of human fibroblasts, AP+ / iPSC-like colonies; format: cell-based; conditions: 1 μM, lower efficiency
# Experimental: O4I3 was applied in commercially available episome-based reprogramming cocktail containing episomal vectors for overexpression of Oct4, Sox2, Klf4, Lin28 and L-Myc, as well as suppression of p53. In comparison to non-treated fibroblast cultures, 20 times more alkaline phosphatase (AP) positive colonies were detected in the presence of O4I3 at a concentration of 50 nM in two tested human primary fibroblasts (HF1 and HF2) (FIG. 13).
# It is known in the art that senescence or other unknown factors can confer donor fibroblasts resistance to reprogramming. Therefore, O4I3 was tested for its ability to enable reprogramming of refractory fibroblasts. Two human fibroblasts were selected. HFF-LTR7-EGFP at passage >40 carrying EGFP driven by a LTR7 promoter, which was activated during reprogramming, and HF5, isolated from a patient sample, both of which were resistant to an episome-based reprogramming approach (FIG. 13).
# Epi5® Episomal iPSC Reprogramming Kit (Life technologies) was used to reprogram human fibroblasts according to the manufacturer's protocol. Briefly, 5,000-50,000 cells were seeded in a 24-well plate for 24 h and then transfected with episomal vectors in N2 B27 medium. After 14 days, cells were re-suspended with 0.5 mM EDTA and re-plated in a 6-well plate in Essential®8 medium. Colonies were isolated after 3-4 weeks with the help of alkaline phosphatase (AP) live stain (Life technologies). Medium was refreshed daily.
# methylated H3K4 = assay: In vitro H3K4 methylation assay (Epiquik histone demethylase H3K4 specific kit); format: biochemical; conditions: micromolar concentrations
# Experimental: (§2) Epiquik histone demethylase (H3K4 specific) activity/inhibition assay kit (Epigentek, Biocat, Germany) was used to measure the protective effect of O4I3 and zolpidem on the methylation of H3K4. Their inhibitory effects on LSD1, KDM5s, and KDM4 were determined using Epigenase jarid demethylase activity/inhibition assay kit, Epigenase JMJD2 demethylase activity/inhibition assay kit and EpiQuik histone demethylase LSD1 activity/inhibition assay kit (Epigentek, Biocat, Germany). The total nuclear extraction was used according to manufacturer's instructions. For measuring KDM5A, KDM5B, KDM5C, and KDM5D activity, magnetic beads were used to immunoprecipitate the respective enzymes from 10^8 cells according to the manufacturer's instructions (Cell Signaling Technologies).
# KDM5 = KDM5 demethylase inhibition, whole-cell nuclear extraction; format: biochemical; conditions: micromolar concentrations
# Source text: (§3) HMT and HDM are two major classes of enzymes, contributing to the regulation of histone methylation. Lysine-specific demethylase 1 (LSD1) and histone lysine demethylase 5 (KDM5, also known as JARID1) majorly catalyze demethylation of H3K4. A few KDM5 chemical inhibitors have been reported to inhibit demethylation of H3K4, leading to an increase of global methylated H3K4 in various cell types. The inventors tested the inhibitory effect of O4I3 on LSD1 and KDM5. KDM4 (also known as JMJD2), the HDM of H3K9 and H3K36, was also included.
# as §2
# KDM4 = test system: T1, KDM4; assay: KDM4 (JMJD2) demethylase inhibition, nuclear extraction; format: biochemical; conditions: micromolar concentrations
# T1 construct: other: whole-cell nuclear extraction; other: micromolar concentrations
# Source text: as §3, §2
# Oct4 [6] = assay: Luciferase reporter assay in NCCIT-Oct4 cells; format: cell-based, human; conditions: 10 μM, 48 h
compound,measurement,setting,value
CCOC(=O)c1csc(Nc2ccc(Cl)cc2)n1 [O4I2],metabolic conversion in cells,[1],occurrence of ester-to-acid conversion
Cc1cccc(Nc2nc(C(C)(C)C)cs2)c1C [O4I4],activity in three luciferase reporter cell lines,OCT4-promoter,among the most active compounds
same,"expression of NANOG, increase as compared to 0.1% DMSO treatment",[2],30 fold
same,"expression of OCT4, increase as compared to 0.1% DMSO treatment",[2],3 fold
same,survival ratio under oxidative stress,C. elegans [3],increased survival ratio
same,lifespan,C. elegans [4],life extension
same,localization of daf-16,daf-16,nucleic translocation
same,OCT4 protein,Oct4 [5],dose-dependent increase
"Cc1ccc(-c2nc3ccc(C)cn3c2CC(=O)N(C)C)cc1 [zolpidem, N,N-dimethyl-2-(6-methyl-2-p-tolylimidazo[1,2-a]pyridin-3-yl)acetamid, reference compound]",induction in NCCIT-Nanog reporter cells,Nanog,~2 fold
same,maintenance of iPSCs,hiPSCs,sustained the maintenance of iPSCs
same,reprogramming of resistant fibroblasts,human fibroblasts,facilitated the reprogramming of resistant fibroblasts
same,protection of H3K4 methylation,methylated H3K4,protected H3K4 methylation
same,inhibition of KDM5,KDM5,inhibited
same,inhibition of KDM4,KDM4,inhibited
same,induction in NCCIT-Oct4 reporter cells,Oct4 [6],~2 fold
